Assay results published in PMC6100073, “Activation of Anthracene Endoperoxides in Leishmania and Impairment of Mitochondrial Functions” (Molecules : A Journal of Synthetic Chemistry and Natural …, 2018).
Read-outs that look alike come from different tables or passages of the source.

Assays:
[1] = system: Leishmania donovani promastigotes (LdP); experiment: MTS-PMS viability assay in Leishmania donovani promastigotes; type: cell-based; conditions: endpoint at 48 h, 5 × 10^5 LdP/mL, read-out: IC50 (µM) Mean ± SD LdP
Method: Leishmania donovani (PS14) were originated from the splenic aspirate of a patient with visceral leishmaniasis. Typing of the species was done by a restriction fragment length polymorphism (RFLP) method. The parasites were cultivated in M199 medium supplemented with 20% FBS, penicillin G (50,000 IU/L), streptomycin (50 mg/L), and hemin (5 µM) at 24 °C for transformation. After 1–2 weeks, the successfully transformed parasites (Leishmania donovani promastigotes, LdP) were transferred to M199 medium supplemented with 10% FBS, penicillin G (50,000 IU/L), streptomycin (50 mg/L), and hemin (5 µM) in 12.5 cm^2 flasks (HiMedia, Mumbai, India) at 24 °C. The cells were sub-cultured every 48–72 h, 1 × 10^6 cells/mL being the inoculum.
The antileishmanial activity of anthracene endoperoxides (AcEPs) in LdP was established in promastigotes, and cell viability was measured using the modified MTS-PMS assay. Briefly, log phase promastigotes (1 × 10^5 cells/200 µL of Schneider‘s medium/well) were incubated with AcEPs (0–100 µM) for 48 h, and afterwards, parasite viability was measured. For this, MTS (2.0 mg/mL) and PMS (0.92 mg/mL) were added in a ratio of 5:1 (20 µL/well), and plates were incubated for 3 h at 37 °C; resultant absorbance was measured at 490 nm in a spectrofluorimeter (Merilyzer EIaQuant, Meril Life Sciences, Gujarat, India). The mean percent viability was calculated as follows: mean specific absorbance of treated parasites/mean specific absorbance of untreated parasites × 100. Results were expressed as IC50 values. These were enumerated by graphical extrapolation using Graph pad Prism software (version 5).

[2] = Xylenol orange assay: reaction of endoperoxides with Fe2+; conditions: 50 µM compound, 250 µM FeSO4, 125 µM xylenol orange, methanol/H2O (9:1 v/v)
Method: Xylenol orange (XO) (125 µM) and butylated hydroxytoluene (4 mM) were dissolved in methanol/H2O (9:1, v/v). FeSO4 (25 mM) in 2.5 M H2SO4 was prepared immediately before use and added, giving a final concentration of 250 µM FeSO4 in the samples. An aliquot of 100 µL EP solution (final concentration of 50 µM) was transferred into a disposable 1.5 mL cuvette (BRAND, Wertheim, Germany), and 1 mL of the color reagent was added. […] At these time points, the OD difference of the sample at 560 nm and 650 nm was determined using a MS1501 UV-vis diode array spectrophotometer (Shimadzu, Japan). As reference, a mixture of methanol/H2O (9:1, v/v) was used. […] The slope of the reaction rate was calculated using an extinction coefficient of the complex of 1.5 × 10^4 M^−1 cm^−1.

| SMILES | IC50 ([1]; Leishmania donovani, 48 h) | Slope (nM·min^−1) Mean ± SD of XO/Fe^3+ complex formation [2] | IC50 [1] |
| --- | --- | --- | --- |
| CC12OOC(C)(c3ccccc31)c1ccccc12 [AcEP1118, 9,10-dimethyl-9,10-dihydro-9,10-epidioxidoanthracene] | 4.1 ± 0.94 µM | 2940 ± 11 nM/min | – |
| c1ccc2c(c1)C1OOC2c2ccccc21 [AcEP1117, 9,10-dihydro-9,10-epidioxidoanthracene] | 2.65 ± 0.34 µM | 77 ± 18 nM/min | – |
| N=C(N)c1ccc(OCCCCCOc2ccc(C(=N)N)cc2)cc1 [Pen, pentamidine, reference compound] | < 1 µM | – | 0.55 ± 0.11 µM |
| CC12OOC(c3ccccc31)c1ccccc12 [AcEP1129, 9-methyl-9,10-dihydro-9,10-epidioxidoanthracene] | 4.21 ± 0.36 µM | 200,213 ± 60,600 nM·min^−1 | – |
| CCc1ccc2c(c1)C1OOC2c2ccccc21 (stereo not shown) [AcEP1130, 2-ethyl-9,10-dihydro-9,10-epidioxidoanthracene] | 39.5 ± 3.48 µM | 146 ± 27 nM/min | – |
